Source: patent EP1506969B1, “Compounds with growth hormone releasing properties” (Helsinn Therapeutics (U.S.), Inc., priority 1998, dated 2010)
Square brackets hold non-standard residues; d marks the D form. Peptide text beside a SMILES is read from it. d2Nal = N[C@H](Cc1ccc2ccccc2c1)C(=O)O

How the values were obtained:
[1] = test system: carboxypeptidase Y and B; test: Metabolic stability in carboxypeptidase mix (ESMS, selected ion monitoring); conditions: stability: decrease in SIM signal after 24 h in degradation solution; carboxypeptidase Y and B in 50 mM ammoniumacetate pH 4.5, 37°C
Protocol: Compounds of formula I may be evaluated for their metabolic stability using the procedure described below:
(§1) Compounds is dissolved at a concentration of 1 mg/ml in water. 25 ml of this solution is added to 175 ml of the respective enzyme-solution (resulting in an enzyme:substrate ratio (w/w) of approximately 1:5). The solution is left at 37°C overnight. 10 ml of the various degradation solutions is analyzed against a corresponding zero-sample using flow injection electrospray mass spectrometry (ESMS) with selected ion monitoring of the molecular ion. If the signal has decreased more than 20% compared to the zero-sample, the remainder of the solution is analyzed by HPLC and mass spectrometry in order to identify the extent and site(s) of degradation precisely.
(§2) Enzymes (trypsin, chymotrypsin, elastase aminopeptidase M and carboxypeptidase Y and B) were all purchased from Boehringer Mannheim GmbH (Mannheim, Germany)
Carboxypeptidase mix: carboxypeptidase Y and B in 50 mM ammoniumacetate pH 4.5 (all concentrations 0.025 mg/ml).
(§3) Mass spectrometric analysis was performed using two different mass spectrometers. […]
(§4) Quantification of the compounds (before and after degradation) was done on the API III instrument using single ion monitoring of the molecular ion in question with flow injection of the analyte. […]

[2] = test system: trypsin, chymotrypsin and elastase; test: Metabolic stability in pancreatic enzyme mix (ESMS, selected ion monitoring); conditions: stability: decrease in SIM signal after 24 h in degradation solution, chymotrypsin and elastase in 100 mM ammoniumbicarbonate pH 8.0, 37°C
Protocol: as §1, §2
Pancreatic enzyme mix: trypsin, chymotrypsin and elastase in 100 mM ammoniumbicarbonate pH 8.0 (all concentrations 0.025 mg/ml).
as §3, §4

| SMILES | Carboxy-peptidase mix [1] | Pan. enzyme mix [2] |
| --- | --- | --- |
| C[C@H](NC(=O)[C@@H](Cc1c[nH]c2ccccc12)NC(=O)[C@@H](N)Cc1c[nH]cn1)C(=O)N[C@@H](Cc1c[nH]c2ccccc12)C(=O)N[C@H](Cc1ccccc1)C(=O)N[C@@H](CCCCN)C(N)=O [GHRP-6] (H-H[dW]AW[dF]K-NH2) | - (Unstable (more than 20% decrease in SIM signal after 24 h in degradation solution)) | - (Unstable (more than 20% decrease in SIM signal after 24 h in degradation solution)) |
| C[C@H](NC(=O)[C@@H](Cc1ccc2ccccc2c1)NC(=O)[C@@H](C)N)C(=O)N[C@@H](Cc1c[nH]c2ccccc12)C(=O)N[C@H](Cc1ccccc1)C(=O)N[C@@H](CCCCN)C(N)=O [GHRP-2] (H-[dA][d2Nal]AW[dF]K-NH2) | - (Unstable (more than 20% decrease in SIM signal after 24 h in degradation solution)) | - (Unstable (more than 20% decrease in SIM signal after 24 h in degradation solution)) |
